What was measured:
Type in all cases: cell-based
[1] = tested on: Staphylococcus aureus IF012732; assay: Test of bactericidal power of bactericides mixed with meat (beef) extract
Protocol: (§1) It was evaluated whether bactericidal power was lowered when the bactericides shown in Table 20 were mixed with beef extract (Wako Junyaku) according to the following method. For comparison, sodium hypochlorite was also evaluated. Strains used herein were Staphylococcus aureus IF012732 and Salmonella enteritidis IF003313.
(§2) One ml of each of bactericides shown in Table 20 and one ml of 5% beef extract (dissolved in sterilized water) were mixed at a ratio of one to one, and allowed to stand at a room temperature. After 10 minutes, 10 μl of bacteria suspension previously prepared was added to each of the bactericides and the mixture, and allowed to stand after stirred. Change of number of bacteria in the mixture solution was determined (one minute, five minutes and 10 minutes after addition of bacteria). According to previous experiments, it was confirmed that general viable count was 10 or less per one ml of 5% beef extract. As shown in Table 21 and Table 22, when 0.02% of sodium hypochlorite was mixed with a beef extract, bactericidal power thereof was lowered.
The bactericides shown in Table 23 were examined for bactericidal power in a similar manner to that of Test Example 7.

[2] = tested on: Salmonella enteritidis IF003313; assay: as above
Protocol: as §1, §2

[3] = tested on: general bacterium on the surface of beef; assay: Number of bacterium on the surface of beef treated with bactericide; conditions: 5 minutes immersion, preserved at 4° C.
Protocol: 50 ml of each of bactericides was charged in a vessel, and then 15 g of beef (block) was immersed in the bactericide, and allowed to stand at room temperature (surface sterilization). After 5 minutes, the bactericide was removed, and only the beef was preserved in the vessel at 4° C. After certain period ((1) after one day, (2) after three days, (3) after six days), 25 ml of physiological saline was added to the vessel containing the beef, and shaked. The number of the bacterium cells liberated from the beef into the physiological saline was counted. It was confirmed according to preliminary experiments that the number of the bacterium cells per one gram of the beef existing on the surface of the beef before sterilization treatment was 10 or less. Sterilized water and sodium hypochlorite were also examined.

Salmonella enteritidis [4] = assay: Test of bactericidal power of bactericides after treating beef (block); conditions: 5 min
Protocol: (§3) 100 ml of each of bactericides shown in Table 25 was charged into a vessel. 21 g of beef (block) was immersed in the bactericide, and allowed to stand at room temperature. After 24 hours, the beef was removed, and general bacterium (bacterium liberated from the beef) present in the bactericide were removed using a sterilized filter. 30 μl of bacteria suspension of Staphylococcus aureus or Salmonella enteritidis was added to 2 ml of the bactericide after used for the treatment of the beef. After five minutes, the number of bacterium in the bactericide was counted. As for 0.01% sodium hypochlorite, a similar test was conducted, and the results were compared.

Staphylococcus aureus [5] = assay: as above; conditions: 5 min
Protocol: as §3

Escherichia coli = assay: Test of persistency of bactericidal power on stainless steel
Protocol: (§4) Each of bactericide shown in Table 8 was sprayed on a sterilized stainless steel plate (15 μl/cm^2), and allowed to stand for seven days in a sterilized room to be dried. Each of the bacteria suspension previously cultured in a similar manner to that described above was diluted with physiological saline. Then, 10 μl of the diluted suspension was spread on the stainless steel. After allowed to stand for 10 minutes, bacterium on the stainless steel were wiped with absorbent cotton, and liberated into physiological saline. Then, visible count was counted. For comparison, 70% ethanol was used as a conventional bactericide. Strong bactericidal power of each bactericide of examples containing both eucalyptus extract and chitosan was maintained, even after elapse of seven days, on the stainless steel on which it was spread. The bactericidal power was stronger than that of bactericides containing only eucalyptus extract (Comparative Examples 1 to 3) or a bactericide containing only chitosan (Comparative Example 4).
(§5) Persistency of bactericidal power of the bactericides shown in Table 16 was evaluated in a similar manner to that of Test Example 3 (allowed to stand for one month). After elapse of one month from spraying of the bactericide, bactericidal power of the bactericide containing glycerol fatty acid ester in addition to eucalyptus extract and chitosan (Example 4) was stronger than that of bactericides containing no glycerol fatty acid ester (Comparative Example 5).

Salmonella enteritidis [6] = assay: as above
Protocol: as §4, §5

MRSA = assay: as above
Protocol: as §4, §5

Staphylococcus aureus [7] = assay: as above
Protocol: as §4, §5

Bacillus subtilis = assay: as above
Protocol: as §4, §5

[8] = tested on: Trichophyton mentagrphytes; assay: Test of activity against Trichophyton mentagrphytes (paper disk, block circle); conditions: 8 mm paper disk with 25 μl, dried 24 hours; cultured at 28° C. for five days
Protocol: A paper disk having a diameter of 8 mm that was previously subjected to dry heat sterilization, was impregnated with 25 μl of each of fungicides shown in Table 8 and allowed to stand for 24 hours to be dried. The paper disk was put on agar medium on which spore suspension of Trichophyton […] previously prepared was spread, and cultured at 28° C. for five days. […] No block circle was formed when a fungicide containing only chitosan (Comparative Example 4) was used.

[9] = mixing treatment of beef extract and bactericide (10 min) done, 1 min
[10] = mixing treatment of beef extract and bactericide (10 min) done, 5 min
[11] = mixing treatment of beef extract and bactericide (10 min) done, 10 min
[12] = mixing treatment with beef extract none, 1 min
[13] = mixing treatment with beef extract none, 5 min
[14] = mixing treatment with beef extract none, 10 min
[15] = treatment of beef done (24 hours)

## [Na+].[O-]Cl [0.02% Sodium hypochloryte, sodium hypochlorite]
[1]; [9]
  Viable count: 6.5 × 10^6 Number/ml
[1]; [10]
  Viable count: 6.5 × 10^6 Number/ml
[1]; [11]
  Viable count: 6.4 × 10^6 Number/ml
[1]; [12]
  Viable count: <200 Number/ml
[1]; [13]
  Viable count: <200 Number/ml
[1]; [14]
  Viable count: <200 Number/ml
[2]; [9]
  Viable count: 4.5 × 10^5 Number/ml
[2]; [10]
  Viable count: 4.3 × 10^5 Number/ml
[2]; [11]
  Viable count: 4.3 × 10^5 Number/ml
[2]; [12]
  Viable count: <200 Number/ml
[2]; [13]
  Viable count: <200 Number/ml
[2]; [14]
  Viable count: <200 Number/ml

## OCl [0.01% Sodium hypochlorite, sodium hypochlorite]
[3]; After 3 days
  Number of general bacterium: 1.4 × 10^5 Number/g
[3]; After 6 days
  Number of general bacterium: 3.4 × 10^7 Number/g
[3]; After one day
  Number of general bacterium: 6.7 × 10^2 Number/g
Salmonella enteritidis [4]; [15]
  Viable count: 1.5 × 10^5 Number/ml
Salmonella enteritidis [4]; treatment of beef none
  Viable count: <1000 Number/ml
Staphylococcus aureus [5]; [15]
  Viable count: 1.8 × 10^5 Number/ml
Staphylococcus aureus [5]; treatment of beef none
  Viable count: <1000 Number/ml

## CCO [70% Ethanol, Ethanol]
Escherichia coli
  Viable count (After 7 days): 2.2 × 10^6 Number/100 cm^2
Salmonella enteritidis [6]
  Viable count (After 7 days): 4.5 × 10^6 Number/100 cm^2
MRSA
  Viable count (After 7 days): 1.2 × 10^6 Number/100 cm^2
Staphylococcus aureus [7]
  Viable count (After 7 days): 3.5 × 10^6 Number/100 cm^2
Bacillus subtilis
  Viable count (After 7 days): 3.0 × 10^6 Number/100 cm^2
[8]
  Diameter of block circle: None
